≈ marks a conversion by molar mass, not a printed value.
Assay: not given
Settings: in a pH=14 aqueous solution; cited from earlier work

Compound | solubility
O=C1C(O)=C(C2=C(O)C(=O)c3ccccc3C2=O)C(=O)c2ccccc21 [bilawsone] | 0.56 mol/L (≈ 194 mg/mL)

Assay: water solubility under acidic conditions
Assay type: physicochemical
Settings: not given

Compound | water solubility under acidic conditions
2,2′,6,6′-tetrabenzylamine-5,5′-dihydroxy-1,1′-dicarbonylbinaphthalene | approximately 2 M
Oc1c(NCc2ccccc2)cc(NCc2ccccc2)c2c(O)c(NCc3ccccc3)cc(NCc3ccccc3)c12 [2,4,6,8-Tetrabenzylamine-1,5-naphthalenediol] | lower than 1 M
Oc1c(NCc2ccccc2)ccc2c(O)c(NCc3ccccc3)ccc12 [2,6-Dibenzylamine-1,5-naphthalenediol] | lower than 5 mM
O=C1C(NCc2ccccc2)=C(O)C(=O)c2c(O)c(NCc3ccccc3)cc(NCc3ccccc3)c21 [3,5,7-tribenzylamine-2,8-dihydroxy-1,4-dicarbonylnaphthalene] | approximately 1.6 M
O=C1C(O)=C(NCc2ccccc2)C(=O)c2ccccc21 [3-benzylamine-2-hydroxy-1,4-dicarbonylnaphthalene] | approximately 1 M

Reference: US20250382258A1, “NAPHTHALENE-TYPE COMPOUND AND PREPARATION METHOD THEREFORE AND USE THEREFORE” (DALIAN INSTITUTE OF CHEMICAL PHYSICS, CHINESE ACADEMY OF …, priority 2022, published 2025)
